Results reported in patent publication US20210395256A1, “TYROSINE KINASE INHIBITORS, COMPOSITIONS AND METHODS THERE OF” (Betta Pharmaceuticals Co., Ltd., priority 2018, published 2021).

These compounds were tested against TrkA kinase (Homo sapiens, UniProt P04629) (assay: TrkA kinase assay (mobility shift assay)). Conditions: class symbols; read-out: Trk A Kinase IC50.
Sequence of TrkA kinase (P04629 33-796): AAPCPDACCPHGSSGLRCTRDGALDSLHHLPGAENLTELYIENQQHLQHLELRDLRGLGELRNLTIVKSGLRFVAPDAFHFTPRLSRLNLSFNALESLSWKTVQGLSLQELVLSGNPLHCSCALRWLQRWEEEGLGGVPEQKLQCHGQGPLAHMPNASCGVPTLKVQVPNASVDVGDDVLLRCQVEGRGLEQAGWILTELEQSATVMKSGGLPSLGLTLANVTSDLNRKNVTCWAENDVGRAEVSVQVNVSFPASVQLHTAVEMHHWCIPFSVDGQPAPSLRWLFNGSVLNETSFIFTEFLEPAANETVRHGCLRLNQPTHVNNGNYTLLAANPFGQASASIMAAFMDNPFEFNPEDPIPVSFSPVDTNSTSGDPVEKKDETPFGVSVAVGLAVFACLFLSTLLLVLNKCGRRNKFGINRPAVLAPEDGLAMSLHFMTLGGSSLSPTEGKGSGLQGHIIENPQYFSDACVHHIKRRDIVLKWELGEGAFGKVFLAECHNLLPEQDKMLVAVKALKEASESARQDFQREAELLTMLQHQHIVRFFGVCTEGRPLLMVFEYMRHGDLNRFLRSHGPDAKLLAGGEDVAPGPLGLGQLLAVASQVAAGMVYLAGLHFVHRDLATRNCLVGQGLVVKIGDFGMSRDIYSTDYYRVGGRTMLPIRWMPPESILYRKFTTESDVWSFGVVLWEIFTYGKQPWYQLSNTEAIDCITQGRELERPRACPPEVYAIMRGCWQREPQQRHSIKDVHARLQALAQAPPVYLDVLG
Type: biochemical
Procedure, shortened: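 Ten-point compound series was preincubated 10 min at room temperature with TrkA, then FAM-peptide plus ATP added in HEPES pH 7.5/Brij-35 buffer and reacted at 28 °C before EDTA quench.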
For N#Cc1ccc2nc(-c3cnn4ccc(N5CCC[C@@H]5c5cc(F)ccc5F)nc34)[nH]c2c1 [Compound 107, (R)-2-(5-(2-(2,5-difluorophenyl)pyrrolidin-1-yl)pyrazolo[1,5-a]pyrimidin-3-yl)-1H-benzo[d]imidazole-6-carbonitrile], the IC50 was ≤ 10 nM. Fc1ccc(F)c([C@H]2CCCN2c2ccn3ncc(-c4nc5ccc(F)nc5[nH]4)c3n2)c1 [Compound 108, (R)-2-(5-(2-(2,5-difluorophenyl)pyrrolidin-1-yl)pyrazolo[1,5-a]pyrimidin-3-yl)-5-fluoro-3H-imidazo[4,5-b]pyridine] was tested, and the IC50 was ≤ 10 nM. With Fc1ccc(F)c([C@H]2CCCN2c2ccn3ncc(-c4nc5cc(OC(F)F)c(OC(F)F)cc5[nH]4)c3n2)c1 [Compound 109, (R)-3-(5,6-bis(difluoromethoxy)-1H-benzo[d]imidazol-2-yl)-5-(2-(2,5-difluorophenyl)pyrrolidin-1-yl)pyrazolo[1,5-a]pyrimidine] the IC50 was ≤ 10 nM. In the case of COC(=O)Oc1cc2nc(-c3cnn4ccc(N5CCC[C@@H]5c5cc(F)ccc5F)nc34)[nH]c2cc1OC(=O)OC [Compound 115, (R)-2-(5-(2-(2,5-difluorophenyl)pyrrolidin-1-yl)pyrazolo[1,5-a]pyrimidin-3-yl)-1H-benzo[d]imidazole-5,6-diyl dimethyl bis(carbonate)], the IC50 is reported as > 50 nM. In the case of Fc1ccc(F)c([C@H]2CCCN2c2ccn3ncc(-c4nc5ccc(SC(F)(F)F)cc5[nH]4)c3n2)c1 [Compound 116, (R)-5-(2-(2,5-difluorophenyl)pyrrolidin-1-yl)-3-(6-((trifluoromethyl)thio)-1H-benzo[d]imidazol-2-yl)pyrazolo[1,5-a]pyrimidine], the IC50 is reported as 10 to 50 nM. With Oc1cc2nc(-c3cnn4ccc(N5CCC[C@@H]5c5cc(F)ccc5F)nc34)[nH]c2cc1O [Compound 117, (R)-2-(5-(2-(2,5-difluorophenyl)pyrrolidin-1-yl)pyrazolo[1,5-a]pyrimidin-3-yl)-1H-benzo[d]imidazole-5,6-diol] the IC50 was ≤ 10 nM. Fc1ccc(F)c([C@H]2CCCN2c2ccn3ncc(-c4nc5cc(O[C@@H]6CCOC6)c(O[C@H]6CCOC6)cc5[nH]4)c3n2)c1 [Compound 118, 5-((R)-2-(2,5-difluorophenyl)pyrrolidin-1-yl)-3-(5-(((R)-tetrahydrofuran-3-yl)oxy)-6-(((S)-tetrahydrofuran-3-yl)oxy)-1H-benzo[d]imidazol-2-yl)pyrazolo[1,5-a]pyrimidine] gave an IC50 of 10 to 50 nM. With N#CCOc1cc2nc(-c3cnn4ccc(N5CCC[C@@H]5c5cc(F)ccc5F)nc34)[nH]c2cc1OCC#N [Compound 119, (R)-2,2′-((2-(5-(2-(2,5-difluorophenyl)pyrrolidin-1-yl)pyrazolo[1,5-a]pyrimidin-3-yl)-1H-benzo[d]imidazole-5,6-diyl)bis(oxy))diacetonitrile] the IC50 was ≤ 10 nM. For COc1cc2nc(-c3cnn4ccc(N5CCC[C@@H]5c5cc(F)ccc5F)nc34)oc2cc1OC [Compound 120, (R)-2-(5-(2-(2,5-difluorophenyl)pyrrolidin-1-yl)pyrazolo[1,5-a]pyrimidin-3-yl)-5,6-dimethoxybenzo[d]oxazole], the IC50 was ≤ 10 nM. For Fc1ccc(F)c([C@H]2CCCN2c2ccn3ncc(-c4nc5nc6ccccc6nc5[nH]4)c3n2)c1 [Compound 121, (R)-2-(5-(2-(2,5-difluorophenyl)pyrrolidin-1-yl)pyrazolo[1,5-a]pyrimidin-3-yl)-1H-imidazo[4,5-b]quinoxaline], the IC50 was 10 to 50 nM. Cc1ccnc2[nH]c(-c3cnn4ccc(N5CCC[C@@H]5c5cc(F)ccc5F)nc34)nc12 [Compound 122, (R)-2-(5-(2-(2,5-difluorophenyl)pyrrolidin-1-yl)pyrazolo[1,5-a]pyrimidin-3-yl)-7-methyl-3H-imidazo[4,5-b]pyridine] gave an IC50 of 10 to 50 nM. Compound Cn1c(-c2cnn3ccc(N4CCC[C@@H]4c4cc(F)ccc4F)nc23)nc2cnccc21 [Compound 124, (R)-2-(5-(2-(2,5-difluorophenyl)pyrrolidin-1-yl)pyrazolo[1,5-a]pyrimidin-3-yl)-1-methyl-1H-imidazo[4,5-c]pyridine] has an IC50 of 10 to 50 nM. For COc1ccc2nc(-c3cnn4ccc(N5CCC[C@@H]5c5cc(F)ccc5F)nc34)[nH]c2c1F [Compound 127, (R)-5-(2-(2,5-difluorophenyl)pyrrolidin-1-yl)-3-(7-fluoro-6-methoxy-1H-benzo[d]imidazol-2-yl)pyrazolo[1,5-a]pyrimidine], the IC50 was ≤ 10 nM. Fc1ccc(F)c([C@H]2CCCN2c2ccn3ncc(-c4nc5nccnc5[nH]4)c3n2)c1 [Compound 128, (R)-2-(5-(2-(2,5-difluorophenyl)pyrrolidin-1-yl)pyrazolo[1,5-a]pyrimidin-3-yl)-1H-imidazo[4,5-b]pyrazine] was tested, and the IC50 was ≤ 10 nM. In the case of Fc1ccc(F)c([C@H]2CCCN2c2ccn3ncc(-c4nc5ncc(Br)nc5[nH]4)c3n2)c1 [Compound 129, (R)-6-bromo-2-(5-(2-(2,5-difluorophenyl)pyrrolidin-1-yl)pyrazolo[1,5-a]pyrimidin-3-yl)-1H-imidazo[4,5-b]pyrazine], the IC50 is reported as ≤ 10 nM. For Fc1ccc(F)c([C@H]2CCCN2c2ccn3ncc(-c4nc5cc6nc7ccccc7nc6cc5[nH]4)c3n2)c1 [Compound 130, (R)-2-(5-(2-(2,5-difluorophenyl)pyrrolidin-1-yl)pyrazolo[1,5-a]pyrimidin-3-yl)-1H-imidazo[4,5-b]phenazine], the IC50 was > 50 nM. Fc1ccc(F)c([C@H]2CCCN2c2ccn3ncc(-c4nc5cc6c(cc5o4)OCO6)c3n2)c1 [Compound 131, (R)-6-(5-(2-(2,5-difluorophenyl)pyrrolidin-1-yl)pyrazolo[1,5-a]pyrimidin-3-yl)-[1,3]dioxolo[4′,5′:4,5]benzo[1,2-d]oxazole] gave an IC50 of 10 to 50 nM. In the case of OC1CCc2nc(-c3cnn4ccc(N5CCC[C@@H]5c5cc(F)ccc5F)nc34)nn2C1 (stereo partly drawn) [Compound 132, 2-(5-((R)-2-(2,5-difluorophenyl)pyrrolidin-1-yl)pyrazolo[1,5-a]pyrimidin-3-yl)-5,6,7,8-tetrahydro-[1,2,4]triazolo[1,5-a]pyridin-6-ol], the IC50 is reported as 10 to 50 nM. N#Cc1ccc2[nH]c(-c3cnn4ccc(N5CCC[C@@H]5c5cc(F)ccc5F)nc34)cc2c1 [Compound 133, (R)-2-(5-(2-(2,5-difluorophenyl)pyrrolidin-1-yl)pyrazolo[1,5-a]pyrimidin-3-yl)-1H-indole-5-carbonitrile] gave an IC50 of 10 to 50 nM. In the case of OCc1cc2nc(-c3cnn4ccc(N5CCC[C@@H]5c5cc(F)ccc5F)nc34)[nH]c2cn1 [Compound 135, (R)-(2-(5-(2-(2,5-difluorophenyl)pyrrolidin-1-yl)pyrazolo[1,5-a]pyrimidin-3-yl)-3H-imidazo[4,5-c]pyridin-6-yl)methanol], the IC50 is reported as ≤ 10 nM. For Fc1ccc(F)c([C@H]2CCCN2c2ccn3ncc(-c4nc5cc(F)c(C(F)(F)F)cc5[nH]4)c3n2)c1 [Compound 139, (R)-5-(2-(2,5-difluorophenyl)pyrrolidin-1-yl)-3-(5-fluoro-6-(trifluoromethyl)-1H-benzo[d]imidazol-2-yl)pyrazolo[1,5-a]pyrimidine], the IC50 was > 50 nM. For CCOc1cc2[nH]c(-c3cnn4ccc(N5CCC[C@@H]5c5cc(F)ccc5F)nc34)nc2cc1C#N [Compound 140, (R)-2-(5-(2-(2,5-difluorophenyl)pyrrolidin-1-yl)pyrazolo[1,5-a]pyrimidin-3-yl)-6-ethoxy-1H-benzo[d]imidazole-5-carbonitrile], the IC50 was ≤ 10 nM.

Same assay, conditions: numeric values; read-out: Trk A Kinase IC50
Fc1ccc(F)c([C@H]2CCCN2c2ccn3ncc(-c4nc5ncc(C(F)(F)F)cc5[nH]4)c3n2)c1 [Compound 110, (R)-2-(5-(2-(2,5-difluorophenyl)pyrrolidin-1-yl)pyrazolo[1,5-a]pyrimidin-3-yl)-6-(trifluoromethyl)-1H-imidazo[4,5-b]pyridine] gave an IC50 of 1.9 nM. In the case of Fc1ccc(F)c([C@H]2CCCN2c2ccn3ncc(-c4nc5cc(F)cc(F)c5o4)c3n2)c1 [Compound 111, (R)-2-(5-(2-(2,5-difluorophenyl)pyrrolidin-1-yl)pyrazolo[1,5-a]pyrimidin-3-yl)-5,7-difluorobenzo[d]oxazole], the IC50 is reported as 5.3 nM. Compound Fc1ccc(F)c([C@H]2CCCN2c2ccn3ncc(-c4nc5cccc(OC(F)(F)F)c5[nH]4)c3n2)c1 [Compound 113, (R)-5-(2-(2,5-difluorophenyl)pyrrolidin-1-yl)-3-(7-(trifluoromethoxy)-1H-benzo[d]imidazol-2-yl)pyrazolo[1,5-a]pyrimidine] has an IC50 of 6.7 nM. Fc1ccc(F)c([C@H]2CCCN2c2ccn3ncc(-c4nc5ccc(C(F)(F)F)nc5[nH]4)c3n2)c1 [Compound 114, (R)-2-(5-(2-(2,5-difluorophenyl)pyrrolidin-1-yl)pyrazolo[1,5-a]pyrimidin-3-yl)-5-(trifluoromethyl)-3H-imidazo[4,5-b]pyridine] showed an IC50 of 3.8 nM. Fc1ccc(F)c([C@H]2CCCN2c2ccn3ncc(-c4nc5cc6c(cc5[nH]4)OCCCO6)c3n2)c1 [Compound 134, (R)-2-(5-(2-(2,5-difluorophenyl)pyrrolidin-1-yl)pyrazolo[1,5-a]pyrimidin-3-yl)-7,8-dihydro-1H,6H-[1,4]dioxepino[2′,3′:4,5]benzo[1,2-d]imidazole] gave an IC50 of 1.1 nM. Fc1ccc(F)c([C@H]2CCCN2c2ccn3ncc(-c4nc5cc(F)c(F)cc5[nH]4)c3n2)c1 [Compound 136, (R)-3-(5,6-difluoro-1H-benzo[d]imidazol-2-yl)-5-(2-(2,5-difluorophenyl)pyrrolidin-1-yl)pyrazolo[1,5-a]pyrimidine] was tested, and the IC50 was 1.9 nM. Compound COC(=O)c1cc2[nH]c(-c3cnn4ccc(N5CCC[C@@H]5c5cc(F)ccc5F)nc34)nc2c(F)c1F [Compound 137, methyl (R)-2-(5-(2-(2,5-difluorophenyl)pyrrolidin-1-yl)pyrazolo[1,5-a]pyrimidin-3-yl)-4,5-difluoro-1H-benzo[d]imidazole-6-carboxylate] has an IC50 of 2.65 nM. Work on O=C(O)c1cc2[nH]c(-c3cnn4ccc(N5CCC[C@@H]5c5cc(F)ccc5F)nc34)nc2c(F)c1F [Compound 138, (R)-2-(5-(2-(2,5-difluorophenyl)pyrrolidin-1-yl)pyrazolo[1,5-a]pyrimidin-3-yl)-4,5-difluoro-1H-benzo[d]imidazole-6-carboxylic acid] yielded an IC50 of 0.48 nM.
